Key:
Experiment in all cases: relative viability (nuclei count vs DMSO), 5 days (fraction); higher = more cells survive
RAF265 + Vorinostat = compound: Cn1c(Nc2ccc(C(F)(F)F)cc2)nc2cc(Oc3ccnc(-c4ncc(C(F)(F)F)[nH]4)c3)ccc21 [RAF265] + O=C(CCCCCCC(=O)Nc1ccccc1)NO [Vorinostat] (partner 1 µM)
Outline: (§1)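 Relative viability is defined as nuclei in treated wells over nuclei in vehicle wells. Duplicate plates were run and medians reported. Lung cancer cell lines in 1536-well plates were dosed by pin tool one day after seeding, with one drug or with a fixed anchor-drug dose plus five library-drug doses (not always all listed) in √10 steps, and nuclei were counted after 5 days.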

Doramapimod + Luminespib = compound: Cc1ccc(-n2nc(C(C)(C)C)cc2NC(=O)Nc2ccc(OCCN3CCOCC3)c3ccccc23)cc1 [Doramapimod] + CCNC(=O)c1noc(-c2cc(C(C)C)c(O)cc2O)c1-c1ccc(CN2CCOCC2)cc1 [Luminespib] (partner 0.01 µM)
Outline: as §1

RAF265 + Pictilisib = compound: Cn1c(Nc2ccc(C(F)(F)F)cc2)nc2cc(Oc3ccnc(-c4ncc(C(F)(F)F)[nH]4)c3)ccc21 [RAF265] + CS(=O)(=O)N1CCN(Cc2cc3nc(-c4cccc5[nH]ncc45)nc(N4CCOCC4)c3s2)CC1 [Pictilisib] (partner 1 µM)
Outline: as §1

Doramapimod + Decitabine = compound: Cc1ccc(-n2nc(C(C)(C)C)cc2NC(=O)Nc2ccc(OCCN3CCOCC3)c3ccccc23)cc1 [Doramapimod] + Nc1ncn([C@H]2C[C@H](O)[C@@H](CO)O2)c(=O)n1 [Decitabine] (partner 2 µM)
Outline: as §1

With UMC-11 the relative viability (RAF265 + Vorinostat; first compound 0.01 µM) was 0.458, the relative viability (RAF265 + Vorinostat; first compound 0.03162 µM) was 0.4 and the relative viability (RAF265 + Vorinostat; first compound 0.1 µM) was 0.343. For the same cell line, the relative viability (RAF265 + Vorinostat; first compound 0.3162 µM) was 0.357, the relative viability (RAF265 + Vorinostat; first compound 1 µM) was 0.32 and the relative viability (Doramapimod + Luminespib; first compound 0.02 µM) was 0.911. For the same cell line, the relative viability (Doramapimod + Luminespib; first compound 0.06325 µM) was 0.869, the relative viability (Doramapimod + Luminespib; first compound 0.2 µM) was 0.904 and the relative viability (Doramapimod + Luminespib; first compound 0.6325 µM) was 0.965. It also gave a relative viability (Doramapimod + Luminespib; first compound 2 µM) of 0.913, a relative viability (RAF265 + Pictilisib; first compound 0.01 µM) of 0.782 and a relative viability (RAF265 + Pictilisib; first compound 0.03162 µM) of 0.747. It also gave a relative viability (RAF265 + Pictilisib; first compound 0.1 µM) of 0.88, a relative viability (RAF265 + Pictilisib; first compound 0.3162 µM) of 0.822 and a relative viability (RAF265 + Pictilisib; first compound 1 µM) of 0.644. It also gave a relative viability (Doramapimod + Decitabine; first compound 0.02 µM) of 0.65, a relative viability (Doramapimod + Decitabine; first compound 0.06325 µM) of 0.584 and a relative viability (Doramapimod + Decitabine; first compound 0.2 µM) of 0.646. The relative viability (Doramapimod + Decitabine; first compound 0.6325 µM) was 0.723 and the relative viability (Doramapimod + Decitabine; first compound 2 µM) was 0.419.

Source: the supplement of paper PMC10307832
